Values of other authors, collected in patent publication US20080124273A1, “Novel cationic metal complex radiopharmaceuticals” (priority 2004, published 2008).

Experiments:
[1] = background statement
[2] = background statement; remark: listed apart in the source

| lipophilicity [1] | T/B ratios [2] | heart uptake [2] | first-pass extraction [2] | uptake in liver and lungs [2] | SMILES |
| --- | --- | --- | --- | --- | --- |
| high | poor | very low | – | – | CCOCCC[P]1(CCCOCC)CCN(CCOCC)CC[P](CCCOCC)(CCCOCC)[99Tc+]12(#[N])[S]C(N(CCOCC)CCOCC)=[S]2 [^99mTcN-DBODC6, [^99mTc(N)(N(CH2CH2OEt)2(PNP6)]^+] |
| – | – | – | low | high | [C-]#[N+]CC(C)(C)OC.[C-]#[N+]CC(C)(C)OC.[C-]#[N+]CC(C)(C)OC.[C-]#[N+]CC(C)(C)OC.[C-]#[N+]CC(C)(C)OC.[C-]#[N+]CC(C)(C)OC.[Tc] [^99mTc-Sestamibi] |
